A word on the melting point: it is the temperature, or range, at which the solid turns liquid.

Series [1] has as its target T1, histamine H3 receptor (Rattus norvegicus, UniProt Q9QYN8).
T1 construct: from tissue; host or cells: rat striatum (Sprague-Dawley, male, 6 weeks), membrane homogenate
Briefly: Histamine H3 receptor binding assay ([3H]-Nα-methylhistamine binding to rat striatum homogenate). The note with it: 1 μmol/L test compound; [3H]-Nα-methylhistamine 1 nmol/L; striata of Sprague-Dawley male rats, 25° C., 1 hour; read-out: Inhibition ratio of [3H]-Nα-methylhistamine binding. The essentials: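 Rat striatum membranes (20 μg protein) incubated with [3H]-Nα-methylhistamine 1 nmol/L in 50 mmol/L Tris/HCl pH 7.4, 5 mmol/L EDTA, 1 hour at 25° C; bound ligand by filtration and scintillation counting. Nonspecific binding defined with 10 μmol/L thioperamide; % inhibition reported at 1 μmol/L compound.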

The target in series [2] is T1, histamine H3 receptor. Briefly: Inhibitory effect on histamine release suppressive action of histamine H3 receptor agonist (Nα-methylhistamine) in rat forebrain synaptosomes. The series is classed as biochemical. The note with it: 1 μmol/L test compound and 1 μmol/L Nα-methylhistamine, potassium 30 mmol/L stimulation, read-out: Inhibition ratio of the [3H]-histamine release suppressive action of Nα-methylhistamine. On the procedure: To the forebrains of Sprague-Dawley male rats (6 to 8 weeks of age), a 30-fold volume of a 0.32 mol/L aqueous sucrose solution was added and the forebrains were homogenized. The resulting homogenate was centrifuged (1,000×g, 4° C., 10 min), and to the obtained supernatant, an equivalent volume of Krebs-Ringer solution [120 mmol/L sodium chloride, 0.8 mmol/L potassium chloride, 2.6 mmol/L calcium chloride, 0.67 mmol/L magnesium sulfate, 1.2 mmol/L potassium dihydrogen phosphate, 27.5 mmol/L sodium bicarbonate, 10 mmol/L glucose (pH 7.3)] was added, and the resulting mixture was centrifuged (10,000×g, 4° C., 15 min). To the obtained precipitate, a 15-fold volume of Krebs-Ringer solution was added to suspend the precipitate. Then, the concentration of protein in the resulting tissue homogenate (synaptosomes) was measured and used for a test.
To the synaptosomes (300 μg in terms of protein amount) prepared by the above-described method, a [^3H]-histidine solution [final concentration: […] (740 kBq)/mL]: 6 μl of a 37 MBq/mL (specific activity: […]) solution] was added, and the total volume was adjusted to 300 μL with Krebs-Ringer solution. Then, the resulting mixture was incubated at 37° C. for 30 minutes and centrifuged (10,000×g, 25° C., 3 min). To the resulting precipitate (synaptosomes), 300 μL of Krebs-Ringer solution was added, and the mixture was incubated at 37° C. for 5 minutes and centrifuged (10,000×g, 25° C., 3 min). This procedure was repeated 5 times, whereby washing of synaptosomes was carried out. The resulting synaptosomes were suspended in 100 μL of Krebs-Ringer solution, and the resulting suspension was used for the following procedure.
A test compound and N^α-methylhistamine were separately dissolved in Krebs-Ringer solution to give a concentration of 20 μmol/L (the resulting mixtures were referred to as a test compound solution and a N^α-methylhistamine solution, respectively). To 100 μL of the above-described suspended synaptosomes (300 μg in terms of protein amount), 140 μL of Krebs-Ringer solution was added. Then, 30 μL of the test compound solution and 30 μL of the N^α-methylhistamine solution were added thereto, and the resulting mixture was incubated at 37° C. for 2 minutes. Then, an equivalent volume of a stimulating solution [64 mmol/L sodium chloride, 56.8 mmol/L potassium chloride, 2.6 mmol/L calcium chloride, 0.67 mmol/L magnesium sulfate, 1.2 mmol/L potassium dihydrogen phosphate, 27.5 mmol/L sodium bicarbonate, 10 mmol/L glucose (pH 7.3)] (final potassium concentration: 30 mmol/L) was added, and the resulting mixture was incubated at 37° C. for 2 minutes to release [^3H]-histamine. The reaction mixture was centrifuged (10,000×g, 25° C., 3 min), and the obtained supernatant was passed through Amberlite CG-50 column (250 μL), and the non-adsorbed fractions were discarded. Then, 2 mL of 50 mmol/L [[…]]/hydrochloric acid (HCl) (pH 7.5) (Tris) was passed through the column 3 times, and 2 mL of distilled water, and 1.5 mL of a 0.2 mol/L aqueous sodium hydroxide solution were passed through the column in this order, and the eluted fractions were discarded. Then, 2 mL of a 0.2 mol/L aqueous sodium hydroxide solution was passed through the column, and the eluted fraction was recovered in a scintillation vial. Then, 8 mL of Ultimagold (Perkin Elmer) was added to the recovered eluted solution, and the radioactivity ([^3H]-histamine) was measured using a liquid scintillation counter. The inhibitory action of the test compound on the histamine release suppressive action of N^α-methylhistamine was evaluated by obtaining the inhibition ratio to the histamine release suppressive action in the presence of 1 μmol/L No-methylhistamine and 1 μmol/L of the test compound. The inhibition ratio of the [^3H]-histamine release suppressive action was calculated using the following Equation (2). […]

T1 sequence (Q9QYN8 whole entry): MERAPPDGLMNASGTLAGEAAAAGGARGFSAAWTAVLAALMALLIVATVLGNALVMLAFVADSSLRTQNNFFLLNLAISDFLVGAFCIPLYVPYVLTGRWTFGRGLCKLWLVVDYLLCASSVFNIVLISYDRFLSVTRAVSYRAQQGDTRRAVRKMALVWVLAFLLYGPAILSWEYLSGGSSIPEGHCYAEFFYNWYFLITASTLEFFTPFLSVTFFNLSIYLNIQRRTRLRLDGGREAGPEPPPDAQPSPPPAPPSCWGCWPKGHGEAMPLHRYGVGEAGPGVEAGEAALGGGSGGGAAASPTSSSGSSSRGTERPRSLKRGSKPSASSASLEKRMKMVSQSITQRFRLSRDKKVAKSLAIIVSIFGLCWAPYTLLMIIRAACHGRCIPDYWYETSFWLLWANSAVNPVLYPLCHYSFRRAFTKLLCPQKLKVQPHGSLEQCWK

Take `C[C@H]1CCCN1CCCN1CCN(CCN2CCC[C@@H]2C)C1=C(C#N)C#N` [Compound 56, {1-[2-((S)-2-methylpyrrolidin-1-yl)ethyl]-3-[3-((S) 2-methylpyrrolidin-1-yl)propyl]imidazolidin-2-ylidene}malononitrile]: the melting point is 70 to 72 °C. At histamine H3 receptor [1], the inhibition at 1 µM is ≥ 80%. For the same compound, at histamine H3 receptor [2], the inhibition at 1 µM is ≥ 70%.

Take `CC(C)N1CCC(N2CCN(CCCN3CCSCC3)C2=C(C#N)C#N)CC1` [Compound 231, [1-(1-Isopropylpiperidin-4-yl)-3-(3-thiomorpholin-1-ylpropyl)imidazolidin-2-ylidene]malononitrile]: the melting point lay within 124 to 125 °C. Moreover, the inhibition at 1 µM on histamine H3 receptor [1] is ≥ 80%. Moreover, the inhibition at 1 µM on histamine H3 receptor [2] was ≥ 70%.

As for `CC1CCCN1CCCN1CCN(CCN2CCCC2C)C1=C(C#N)C#N` (stereo not drawn) [Compound 11, {1-[2-(2-Methylpyrrolidin-1-yl)ethyl]-3-[3-(2-methylpyrrolidin-1-yl)propyl]imidazolidin-2-ylidene}malononitrile], the melting point lay within 69 to 71 °C. Further, the inhibition at 1 µM at histamine H3 receptor [1] was ≥ 80%. For the same compound, the inhibition at 1 µM at histamine H3 receptor [2] was ≥ 70%.

In the case of `CC1CCCN1CCCN1CCN(CCCN2CCCC2C)C1=CS(=O)(=O)CC#N` (stereo not drawn) [Compound 137, {1,3-Bis[3-(2-methylpyrrolidin-1-yl)propyl]imidazolidin-2-ylidene}methanesulfonylacetonitrile], the melting point is 106 to 110 °C. The inhibition at 1 µM on histamine H3 receptor [1] was ≥ 80%. Further, the inhibition at 1 µM on histamine H3 receptor [2] is ≥ 70%.

On to `CN(CCCN1CCCCC1)C(=C(C#N)C#N)N1CCC(N2CCCCC2)CC1` [Compound 161, {[N-methyl-N-(3-piperidinopropyl)amino](4-piperidinopiperidino)methylene}malononitrile], for which the melting point lay within 104 to 105 °C. Further, the inhibition at 1 µM on histamine H3 receptor [1] is ≥ 80%. In addition, at histamine H3 receptor [2], the inhibition at 1 µM was ≥ 70%.

For the compound `C[C@@H]1CCCN1CCCN1C(=C(C#N)C#N)N(CCCN2CCC[C@H]2C)c2ccccc21` [Compound 205, {1,3-Bis[3-((R)-2-methylpyrrolidin-1-yl)propyl]benzimidazolidin-2-ylidene}malononitrile], the melting point was in the range of 96 to 97 °C. In addition, on histamine H3 receptor [1], the inhibition at 1 µM is ≥ 80%. The inhibition at 1 µM at histamine H3 receptor [2] was ≥ 70%.

For the compound `CC1CCCN1CCCN1CCN(CCCN2CCC[C@@H]2CO)C1=C(C#N)C#N` (stereo partly drawn) [Compound 119, {1-[3-((R)-2-hydroxymethylpyrrolidin-1-yl)propyl]-3-[3-(2-methylpyrrolidin-1-yl)propyl]imidazolidin-2-ylidene}malononitrile], the melting point lay in the range of 57 to 59 °C. The inhibition at 1 µM on histamine H3 receptor [1] is ≥ 80%. Besides, at histamine H3 receptor [2], the inhibition at 1 µM is ≥ 70%.

`N#CC(C#N)=C(NCCCN1CCCCC1)N1CCC(N2CCCCC2)CC1` [Compound 160, [(4-Piperidinopiperidino)(3-piperidinopropylamino)methylene]malononitrile]: the melting point lay within 117 to 118 °C. Also, the inhibition at 1 µM on histamine H3 receptor [1] is ≥ 80%. Moreover, the inhibition at 1 µM on histamine H3 receptor [2] is ≥ 70%.

As to `N#CC(C#N)=C1N(CCCN2CCCCC2)CCN1C1CCN(C2CC2)CC1` [Compound 226, [1-(1-Cyclopropylpiperidin-4-yl)-3-(3-piperidinopropyl)imidazolidin-2-ylidene]malononitrile], the melting point was in the range of 104 to 105 °C. Also, the inhibition at 1 µM at histamine H3 receptor [1] was ≥ 80%. Also, at histamine H3 receptor [2], the inhibition at 1 µM is ≥ 70%.

`C[C@H]1CCCN1CCCN1CCN(CCCN2CCC[C@@H]2C)C1=C(C#N)C#N` [Compound 115, {1,3-Bis[3-((S)-2-methylpyrrolidin-1-yl)propyl]imidazolidin-2-ylidene}malononitrile] registered a melting point of 79 to 80 °C. Further, at histamine H3 receptor [1], the inhibition at 1 µM was ≥ 80%. For the same compound, at histamine H3 receptor [2], the inhibition at 1 µM was ≥ 70%.

`C[C@H]1CCCN1CCN1CCN(CCCN2CCCCC2)C1=C(C#N)C#N` [Compound 58, {1-[2-((S)-2-methylpyrrolidin-1-yl)ethyl]-3-(3-piperidinopropyl)imidazolidin-2-ylidene}malononitrile] came in with a melting point of 95 to 96 °C. Further, the inhibition at 1 µM on histamine H3 receptor [1] is ≥ 80%. Also, the inhibition at 1 µM at histamine H3 receptor [2] was ≥ 70%.

With `CC(C)N1CCC(N2CCN(CCCN3CCC(=O)CC3)C2=C(C#N)C#N)CC1` [Compound 233, {1-(1-Isopropylpiperidin-4-yl)-3-[3-(4-oxopiperidino)propyl]imidazolidin-2-ylidene}malononitrile], the melting point lay within 103 to 105 °C. In addition, the inhibition at 1 µM on histamine H3 receptor [1] was ≥ 80%. At histamine H3 receptor [2], the inhibition at 1 µM is ≥ 70%.

`CC1CCCN1CCN1CCN(CCCN2CCCCC2)C1=C(C#N)C#N` (stereo not drawn) [Compound 57, {1-[2-(2-Methylpyrrolidin-1-yl)ethyl]-3-(3-piperidinopropyl)imidazolidin-2-ylidene}malononitrile] displayed a melting point of 84 to 86 °C. In addition, on histamine H3 receptor [1], the inhibition at 1 µM was ≥ 80%. In addition, the inhibition at 1 µM on histamine H3 receptor [2] was ≥ 70%.

For the compound `CN(CCCN1CCOCC1)C(=C(C#N)C#N)N1CCC(N2CCCCC2)CC1` [Compound 166], the melting point is 104 to 106 °C. Moreover, at histamine H3 receptor [1], the inhibition at 1 µM is ≥ 80%. At histamine H3 receptor [2], the inhibition at 1 µM is ≥ 70%.

Regarding `N#CC(C#N)=C(NCCCN1CCOCC1)N1CCC(N2CCCCC2)CC1` [Compound 165, [(4-Piperidinopiperidino)(3-morpholinopropylamino)methylene]malononitrile], the melting point lay in the range of 77 to 80 °C. For the same compound, on histamine H3 receptor [1], the inhibition at 1 µM is ≥ 80%. The inhibition at 1 µM at histamine H3 receptor [2] was ≥ 70%.

Turning to `N#CC(C#N)=C1N(CCCN2CCOCC2)CCN1C1CCN(C2CC2)CC1` [Compound 235, [1-(1-Cyclopropylpiperidin-4-yl)-3-(3-morpholinopropyl)imidazolidin-2-ylidene]malononitrile], the melting point lay within 104 to 106 °C. Besides, the inhibition at 1 µM on histamine H3 receptor [1] was ≥ 80%. Besides, the inhibition at 1 µM at histamine H3 receptor [2] is ≥ 70%.
